Source: patent US11608335B2, “Somatostatin modulators and uses thereof” (CRINETICS PHARMACEUTICALS, INC., priority 2018, dated 2023)
pEC50: −log10 of the molar value. Read-outs that look alike come from different tables or passages of the source.

Legend:
[1] = target: T1, human somatostatin receptor subtype 2 (Homo sapiens, UniProt P30874); experiment: cAMP assay for SST2R (inhibition of cAMP via human SST2 receptor); assay type: cell-based; conditions: Table B, read-out: SST2 potency
T1 construct: expressed in transfected cells
T1 sequence (P30874 whole entry): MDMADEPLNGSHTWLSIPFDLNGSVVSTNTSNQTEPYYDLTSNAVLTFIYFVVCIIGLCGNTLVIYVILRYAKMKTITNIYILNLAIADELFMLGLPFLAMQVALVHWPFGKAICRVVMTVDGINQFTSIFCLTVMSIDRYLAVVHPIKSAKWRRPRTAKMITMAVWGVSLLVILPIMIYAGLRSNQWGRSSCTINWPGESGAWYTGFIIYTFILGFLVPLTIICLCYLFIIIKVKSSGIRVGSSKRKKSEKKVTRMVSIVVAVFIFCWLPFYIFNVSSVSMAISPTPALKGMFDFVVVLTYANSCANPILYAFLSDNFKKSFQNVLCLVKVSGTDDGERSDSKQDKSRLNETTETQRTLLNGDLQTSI
Description: cAMP Assay Protocol for SST2R:

[2] = target: T2, human somatostatin receptor subtype 3 (Homo sapiens, UniProt P32745); experiment: cAMP assay for SST3R (inhibition of cAMP via human SST3 receptor); assay type: cell-based; conditions: from inhibition of cAMP via human SST5 receptor and human SST3 receptor
T2 construct: expressed in transfected cells
T2 sequence (P32745 whole entry): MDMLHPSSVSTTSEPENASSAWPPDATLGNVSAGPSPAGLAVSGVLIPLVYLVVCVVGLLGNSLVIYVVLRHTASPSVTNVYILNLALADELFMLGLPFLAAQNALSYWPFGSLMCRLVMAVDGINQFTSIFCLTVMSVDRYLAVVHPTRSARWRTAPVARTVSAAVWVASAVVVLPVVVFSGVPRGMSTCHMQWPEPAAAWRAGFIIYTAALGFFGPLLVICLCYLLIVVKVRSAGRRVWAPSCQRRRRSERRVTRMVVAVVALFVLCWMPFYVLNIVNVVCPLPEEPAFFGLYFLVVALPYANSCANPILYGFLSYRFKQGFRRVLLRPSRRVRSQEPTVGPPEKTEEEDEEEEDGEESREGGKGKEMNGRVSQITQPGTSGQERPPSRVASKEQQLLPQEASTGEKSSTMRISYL
Description: cAMP Assay Protocol for SST3R:

[3] = target: T3, human somatostatin receptor subtype 4 (Homo sapiens, UniProt P31391); experiment: cAMP assay for hSST4R (inhibition of cAMP via human SST4 receptor); assay type: cell-based; conditions: from inhibition of cAMP via human SST5 receptor and human SST4 receptor
T3 construct: expressed in transfected cells
T3 sequence (P31391 whole entry): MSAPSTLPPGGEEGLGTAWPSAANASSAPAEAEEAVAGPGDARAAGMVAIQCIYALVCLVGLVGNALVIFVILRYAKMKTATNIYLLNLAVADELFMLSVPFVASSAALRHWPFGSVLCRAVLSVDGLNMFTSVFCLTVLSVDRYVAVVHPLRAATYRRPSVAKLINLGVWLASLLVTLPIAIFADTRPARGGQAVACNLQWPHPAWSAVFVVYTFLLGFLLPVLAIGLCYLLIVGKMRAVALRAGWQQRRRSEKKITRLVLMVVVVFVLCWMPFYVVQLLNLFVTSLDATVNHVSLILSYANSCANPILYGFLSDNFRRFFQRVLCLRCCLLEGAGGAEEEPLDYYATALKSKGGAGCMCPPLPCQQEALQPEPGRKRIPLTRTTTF
Description: cAMP Assay Protocol hSST4R:

[4] = target: human somatostatin receptor subtype 5 (Homo sapiens, UniProt P35346); experiment: cAMP assay for SST5R (inhibition of cAMP via human SST5 receptor); conditions: for Fold selectivity for SST5 vs SST2: SST5 over SST2, class symbols
Sequence of human somatostatin receptor subtype 5 (P35346 whole entry): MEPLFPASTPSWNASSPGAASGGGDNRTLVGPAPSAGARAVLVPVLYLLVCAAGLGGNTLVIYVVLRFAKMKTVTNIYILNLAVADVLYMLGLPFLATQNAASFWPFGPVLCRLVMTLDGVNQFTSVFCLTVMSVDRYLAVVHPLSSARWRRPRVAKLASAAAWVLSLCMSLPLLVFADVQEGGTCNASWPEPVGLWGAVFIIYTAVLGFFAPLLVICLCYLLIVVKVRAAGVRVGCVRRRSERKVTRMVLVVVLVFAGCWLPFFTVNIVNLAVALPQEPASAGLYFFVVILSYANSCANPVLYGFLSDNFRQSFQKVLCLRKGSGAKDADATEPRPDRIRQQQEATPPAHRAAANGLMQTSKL

[5] = read-out: SST5 potency, inhibition of cAMP via human SST5 receptor, Table B

| SMILES | pEC50 [1] | Fold selectivity for SST5 vs SST3 [2] [fold] | Fold selectivity for SST5 vs SST4 [3] [fold] | pEC50 [4] | Fold selectivity for SST5 vs SST2 [4] | pEC50 [4, 5] |
| --- | --- | --- | --- | --- | --- | --- |
| CC(N)C1CN(c2c(-c3ccc(F)c(C#N)c3)cncc2-c2nc3cc(F)cc(F)c3[nH]2)C1 (centres unmarked) [Compound 1-65, 5-{4-[3-(1-aminoethyl)azetidin-1-yl]-5-(4,6-difluoro-1H-1,3-benzodiazol-2-yl)pyridin-3-yl}-2-fluorobenzonitrile] | 6.00 to 7.00 | >1000 | 384 | > 8.00 | +++ (+++=≥500) | > 8.00 |
| NCC1CN(c2c(-c3ccc4ccccc4c3)cncc2-c2nc3cc(F)cc(F)c3[nH]2)C1 [Compound 1-41, 1-{1-[3-(4,6-difluoro-1H-1,3-benzodiazol-2-yl)-5-(naphthalen-2-yl)pyridin-4-yl]azetidin-3-yl}methanamine] | – | – | 8.8 | 6.00 to 7.00 | – | – |
| CCC(N)C1CN(c2c(-c3cc(C)cc(F)c3)cncc2-c2nc3cc(F)cc(F)c3[nH]2)C1 (centres unmarked) [Compound 1-51, 1-{1-[3-(4,6-difluoro-1H-1,3-benzodiazol-2-yl)-5-(3-fluoro-5-methylphenyl)pyridin-4-yl]azetidin-3-y}propan-1-amine] | < 6.00 | 200 | 812 | > 8.00 | +++ (+++=≥500) | > 8.00 |
| Cc1ccc(F)c2[nH]c(-c3cncc(-c4cc(F)cc(C#N)c4)c3N3CC[C@H](N)C3)nc12 [Compound 2-63, 3-{4-[(3S)-3-aminopyrrolidin-1-yl]-5-(7-fluoro-4-methyl-1H-1,3-benzodiazol-2-yl)pyridin-3-yl}-5-fluorobenzonitrile] | 6.00 to 7.00 | 43 | 18 | > 8.00 | +++ (+++=≥500) | > 8.00 |
| Cc1cccc2nc(-c3cncc(-c4ccnc(C#N)c4)c3N3CC[C@](C)(N)C3)[nH]c12 [Compound 2-145, 4-[(3S)-3-amino-3-methylpyrrolidin-1-yl]-5-(4-methyl-1H-1,3-benzodiazol-2-yl)-[3,4′-bipyridine]-2′-carbonitrile] | 6.00 to 7.00 | – | 63 | > 8.00 | +++ (+++=≥500) | > 8.00 |
| Cc1c(F)ccc2nc(-c3cncc(-c4ccnc(C#N)c4)c3N3CC[C@](C)(N)C3)[nH]c12 [Compound 2-164, 4-[(3S)-3-amino-3-methylpyrrolidin-1-yl]-5-(5-fluoro-4-methyl-1H-1,3-benzodiazol-2-yl)-[3,4′-bipyridine]-2′-carbonitrile] | – | – | 323 | > 8.00 | – | – |
| Cc1ccnc2[nH]c(-c3cncc(-c4cc(F)c(F)c(C#N)c4)c3N3CC[C@](C)(N)C3)nc12 [Compound 2-165, 5-{4-[(3S)-3-amino-3-methylpyrrolidin-1-yl]-5-{7-methyl-1H-imidazo[4,5-b]pyridin-2-yl}pyridin-3-yl}-2,3-difluorobenzonitrile] | 6.00 to 7.00 | – | 56 | > 8.00 | ++ (++=100 to 499) | > 8.00 |
| CC1(N)CCN(c2c(-c3cccc(C(N)=O)c3)cncc2-c2nc3c(F)cccc3[nH]2)C1 (centres unmarked) [Compound 2-18, 3-[4-(3-amino-3-methylpyrrolidin-1-yl)-5-(4-fluoro-1H-1,3-benzodiazol-2-yl)pyridin-3-yl]benzamide] | < 6.00 | – | – | > 8.00 | +++ (+++=≥500) | > 8.00 |
| Cc1cnc2nc(-c3cncc(-c4ccc(F)c(C#N)c4)c3N3CC[C@](C)(N)C3)[nH]c2c1 [Compound 2-170, 5-{4-[(3S)-3-amino-3-methylpyrrolidin-1-yl]-5-{6-methyl-1H-imidazo[4,5-b]pyridin-2-yl}pyridin-3-yl}-2-fluorobenzonitrile] | < 6.00 | – | – | > 8.00 | +++ (+++=≥500) | > 8.00 |
| Cc1cc(F)cc(-c2cncc(-c3nc4cccc(Cl)c4[nH]3)c2N2CC(CN)C2)c1 [Compound 1-3, 1-{1-[3-(4-chloro-1H-1,3-benzodiazol-2-yl)-5-(3-fluoro-5-methylphenyl)pyridin-4-yl]azetidin-3-yl}methanamine] | 6.00 to 7.00 | – | – | > 8.00 | ++ (++=100 to 499) | > 8.00 |
| CC1(N)CCN(c2c(-c3ccnc(C#N)c3)cncc2-c2nc3cccc(F)c3[nH]2)C1 (centres unmarked) [Compound 2-121, 4-(3-amino-3-methylpyrrolidin-1-yl)-5-(4-fluoro-1H-1,3-benzodiazol-2-yl)-[3,4′-bipyridine]-2′-carbonitrile] | 6.00 to 7.00 | – | – | > 8.00 | +++ (+++=≥500) | > 8.00 |
| Cc1ccc(-c2cncc(-c3nc4c(F)ccc(F)c4[nH]3)c2N2CC[C@H](N)C2)cc1C#N [Compound 2-49, 5-{4-[(3S)-3-aminopyrrolidin-1-yl]-5-(4,7-difluoro-1H-1,3-benzodiazol-2-yl)pyridin-3-yl}-2-methylbenzonitrile] | 6.00 to 7.00 | – | – | > 8.00 | ++ (++=100 to 499) | > 8.00 |
| CCn1c(-c2cncc(-c3cc(F)cc(C#N)c3)c2N2CC[C@H](N)C2)nc2c(F)cccc21 [Compound 2-144, 3-{4-[(3S)-3-aminopyrrolidin-1-yl]-5-(1-ethyl-4-fluoro-1H-1,3-benzodiazol-2-yl)pyridin-3-yl}-5-fluorobenzonitrile] | < 6.00 | – | – | > 8.00 | +++ (+++=≥500) | > 8.00 |
| CC1(N)CCN(c2c(-c3ccc(F)c(C#N)c3)cncc2-c2nc3cccc(C#N)c3[nH]2)C1 (centres unmarked) [Compound 2-147, 2-[4-(3-amino-3-methylpyrrolidin-1-yl)-5-(3-cyano-4-fluorophenyl)pyridin-3-yl]-1H-1,3-benzodiazole-4-carbonitrile] | 6.00 to 7.00 | – | – | > 8.00 | +++ (+++=≥500) | > 8.00 |
| Cc1cc(F)cc(-c2cncc(-c3nc4cccc(C#N)c4[nH]3)c2N2CC(CN)C2)c1 [Compound 1-5, 2-{4-[3-(aminomethyl)azetidin-1-yl]-5-(3-fluoro-5-methylphenyl)pyridin-3-yl}-1H-1,3-benzodiazole-4-carbonitrile] | < 6.00 | – | – | 7.00 to 8.00 | +++ (+++=≥500) | 7.00 to 8.00 |
| N#Cc1cccc(-c2cncc(-c3nc4c(F)cccc4[nH]3)c2N2CCC(N)(CO)C2)c1 (centres unmarked) [Compound 2-54, 3-{4-[3-amino-3-(hydroxymethyl)pyrrolidin-1-yl]-5-(4-fluoro-1H-1,3-benzodiazol-2-yl)pyridin-3-yl}benzonitrile] | 6.00 to 7.00 | – | – | > 8.00 | +++ (+++=≥500) | > 8.00 |
| N#Cc1ccc(-c2cncc(-c3nc4cccc(F)c4[nH]3)c2N2CC[C@H](N)C2)s1 [Compound 2-26, 5-{4-[(3S)-3-aminopyrrolidin-1-yl]-5-(4-fluoro-1H-1,3-benzodiazol-2-yl)pyridin-3-yl}thiophene-2-carbonitrile] | 6.00 to 7.00 | – | – | > 8.00 | ++ (++=100 to 499) | > 8.00 |
| Cc1cccc2nc(-c3cncc(-c4cc(F)c(F)c(C#N)c4)c3N3CC[C@H](N)C3)[nH]c12 [Compound 2-139, 5-{4-[(3S)-3-aminopyrrolidin-1-yl]-5-(4-methyl-1H-1,3-benzodiazol-2-yl)pyridin-3-yl}-2,3-difluorobenzonitrile] | 7.00 to 8.00 | – | – | > 8.00 | ++ (++=100 to 499) | > 8.00 |
| Cc1cccc2[nH]c(-c3cncc(-c4cc(F)c(F)c(C(N)=O)c4)c3N3CCC(C)(N)C3)nc12 (centres unmarked) [Compound 2-127, 5-[4-(3-Amino-3-methylpyrrolidin-1-yl)-5-(4-methyl-1H-1,3-benzodiazol-2-yl)pyridin-3-yl]-2,3-difluorobenzamide] | 6.00 to 7.00 | – | – | > 8.00 | ++ (++=100 to 499) | > 8.00 |
| Cc1ccnc2nc(-c3cncc(-c4cccc(Cl)c4)c3N3CC[C@](C)(N)C3)[nH]c12 [Compound 2-180, (3S)-1-[3-(3-chlorophenyl)-5-{7-methyl-1H-imidazo[4,5-b]pyridin-2-yl}pyridin-4-yl]-3-methylpyrrolidin-3-amine] | 7.00 to 8.00 | – | – | > 8.00 | ++ (++=100 to 499) | > 8.00 |
| NC(=O)c1cccc(-c2cncc(-c3nc4c(F)ccc(F)c4[nH]3)c2N2CC[C@H](N)C2)c1 [Compound 2-43, 3-{4-[(3S)-3-aminopyrrolidin-1-yl]-5-(4,7-difluoro-1H-1,3-benzodiazol-2-yl)pyridin-3-yl}benzamide] | < 6.00 | – | – | 7.00 to 8.00 | +++ (+++=≥500) | 7.00 to 8.00 |
| Cc1ccc(F)c2[nH]c(-c3cncc(-c4ccnc(C#N)c4)c3N3CC[C@H](N)C3)nc12 [Compound 2-106, 4-[(3S)-3-aminopyrrolidin-1-yl]-5-(7-fluoro-4-methyl-1H-1,3-benzodiazol-2-yl)-[3,4′-bipyridine]-2′-carbonitrile] | 6.00 to 7.00 | – | – | > 8.00 | +++ (+++=≥500) | > 8.00 |
